How the values were obtained:
Assay type in all cases: cell-based
HUH-7 cells = assay: CellTiter-Glo cell viability, HUH-7; details: Homo sapiens, 72 h
Method: (§1) The cell viability of 50 cancer cell lines was studied after treatment with Compound 121. Inhibition concentration values at 50% (IC50) were determined using CellTiter-Glo luminescent cell viability assay after incubation with different compound concentrations. GI50 values were determined according to the examples described above. Each cell line was treated with Compound 121, a standard chemotherapy drug as a reference control, and culture medium as a vehicle control.
(§2) All cells were cultured in media supplemented with 10-15% FBS at 37° C. in the presence of 5% CO2 and at 95% humidity. The culture medium was purchased from GIBCO or Sigma, USA. Cisplatin was chosen as the reference control and purchased from Hospira Australia Pty Ltd. The cell lines studied are presented in Table 5.
(§3) Cells were harvested during a logarithmic growth period and cell number count was determined using Count-star. Cell concentrations were adjusted to 4.44×10^4 cells/mL with respective culture medium. 90 μL of cell suspensions were added to two 96-well plates (plates A and B) with a final cell density of 4×10^3 cells/well.
(§4) 10 μL of culture medium was added to each well of plate A for TO reading. The plate was allowed to equilibrate at room temperature for approximately 30 min. 50 μL of CellTiter-Glo was added to each well and the contents were mixed for 5 min on an orbital shaker to induce cell lysis. The plate was allowed to incubate at room temperature for 20 min to stabilize luminescent signal.
(§5) 10 μM Compound 121 in media was serially diluted 3.16-fold to achieve 9 dose levels. Similarly, 100 μM reference control in media was serially diluted 3.16-fold to prepare reference control solutions. 10 μL drug solution and 10 μL of reference control was dispensed into each well in plate B.
(§6) Test plate B was incubated for 72 h in a humidified incubator at 37° C. in the presence of 5% CO2 and then subjected to CTG assay. The plate was allowed to equilibrate at room temperature for about 30 min. 50 μL of CellTiter-Glo was added to each well and the contents were mixed for 5 min on an orbital shaker to induce cell lysis. The plate was allowed to incubate at room temperature for 20 min to stabilize luminescent signal.
(§7) IC50 and GI50 values for each of the 50 cell lines are presented in Table 6 and were calculated based on the dose-response curves depicted in FIGS. 1-50. The dose-response curves were fitted using nonlinear regression model with a sigmoidal dose response. The formula for calculating survival rate was calculated by the formula:
(§8) Survival rate (%)=(LumTest article−LumMedium control)/(LumNone treated−LumMedium control)×100.

PC-3 cells = assay: CellTiter-Glo cell viability, PC-3; details: Homo sapiens, 72 h
Method: as §1, §2, §3, §4, §5, §6, §7, §8

Raji cells = assay: CellTiter-Glo cell viability, Raji; details: Homo sapiens, 72 h
Method: as §1, §2, §3, §4, §5, §6, §7, §8

K-562 cells = assay: CellTiter-Glo cell viability, K-562; details: Homo sapiens, K562, 72 h
Method: as §1, §2, §3, §4, §5, §6, §7, §8

SW579 cells = assay: CellTiter-Glo cell viability, SW579; details: 72 h
Method: as §1, §2, §3, §4, §5, §6, §7, §8

786-O cells = assay: CellTiter-Glo cell viability, 786-O; details: Homo sapiens, 786-0, 72 h
Method: as §1, §2, §3, §4, §5, §6, §7, §8

22Rv1 cells = assay: CellTiter-Glo cell viability, 22Rv1; details: Homo sapiens, 72 h
Method: as §1, §2, §3, §4, §5, §6, §7, §8

MES-SA/DX5 cells = assay: CellTiter-Glo cell viability, MES-SA/DX5; details: Homo sapiens, 72 h
Method: as §1, §2, §3, §4, §5, §6, §7, §8

143B cells = assay: CellTiter-Glo cell viability, 143B; details: Homo sapiens, 72 h
Method: as §1, §2, §3, §4, §5, §6, §7, §8

A-673 cells = assay: CellTiter-Glo cell viability, A-673; details: Homo sapiens, A673, 72 h
Method: as §1, §2, §3, §4, §5, §6, §7, §8

MDA-MB-453 cells = assay: CellTiter-Glo cell viability, MDA-MB-453; details: Homo sapiens, 72 h
Method: as §1, §2, §3, §4, §5, §6, §7, §8

MDA-MB-231 cells = assay: CellTiter-Glo cell viability, MDA-MB-231; details: Homo sapiens, 72 h
Method: as §1, §2, §3, §4, §5, §6, §7, §8

SNU-5 cells = assay: CellTiter-Glo cell viability, SNU-5; details: Homo sapiens, SNU-5, SN1J-5 cells, 72 h
Method: as §1, §2, §3, §4, §5, §6, §7, §8

NCI-H226 cells = assay: CellTiter-Glo cell viability, NCI-H226; details: Homo sapiens, 72 h
Method: as §1, §2, §3, §4, §5, §6, §7, §8

HT-1376 cells = assay: CellTiter-Glo cell viability, HT-1376; details: Homo sapiens, 72 h
Method: as §1, §2, §3, §4, §5, §6, §7, §8

KYSE-150 cells = assay: CellTiter-Glo cell viability, KYSE-150; details: Homo sapiens, 72 h
Method: as §1, §2, §3, §4, §5, §6, §7, §8

FaDu cells = assay: CellTiter-Glo cell viability, FaDu; details: Homo sapiens, 72 h
Method: as §1, §2, §3, §4, §5, §6, §7, §8

HCT-15 cells = assay: CellTiter-Glo cell viability, HCT-15; details: Homo sapiens, 72 h
Method: as §1, §2, §3, §4, §5, §6, §7, §8

U251 cells = assay: CellTiter-Glo cell viability, U251; details: Homo sapiens, U-251, 72 h
Method: as §1, §2, §3, §4, §5, §6, §7, §8

HeLa cells = assay: CellTiter-Glo cell viability, HeLa; details: Homo sapiens, 72 h
Method: as §1, §2, §3, §4, §5, §6, §7, §8

HT-1080 cells = assay: CellTiter-Glo cell viability, HT-1080; details: Homo sapiens, 72 h
Method: as §1, §2, §3, §4, §5, §6, §7, §8

[1] = top conc. 10 μM Compound 121, 100 μM cisplatin

Cc1cc(N2CCOC[C@@H]2C)ccc1-c1ccc(CC(=O)NCc2ccc(F)cc2)nc1 [Compound 121]
GI50 (HUH-7 cells; read-out: Absolute GI50): 7 nM
IC50 (HUH-7 cells; read-out: Absolute IC50): 9 nM
inhibition at 10 µM (HUH-7 cells; [1]): 60.8%
GI50 (PC-3 cells; read-out: Absolute GI50): 8 nM
IC50 (PC-3 cells; read-out: Absolute IC50): 8 nM
inhibition at 10 µM (PC-3 cells; [1]): 93.3%
GI50 (Raji cells; read-out: Absolute GI50): 5 nM
IC50 (Raji cells; read-out: Absolute IC50): 5 nM
inhibition at 10 µM (Raji cells; [1]): 94.2%
GI50 (K-562 cells; read-out: Absolute GI50): 6 nM
IC50 (K-562 cells; read-out: Absolute IC50): 6 nM
inhibition at 10 µM (K-562 cells; [1]): 98.1%
GI50 (SW579 cells; read-out: Absolute GI50): 6 nM
IC50 (SW579 cells; read-out: Absolute IC50): 7 nM
inhibition at 10 µM (SW579 cells; [1]): 88.2%
GI50 (786-O cells; read-out: Absolute GI50): 5 nM
IC50 (786-O cells; read-out: Absolute IC50): 5 nM
inhibition at 10 µM (786-O cells; [1]): 85.3%
GI50 (22Rv1 cells; read-out: Absolute GI50): 5 nM
IC50 (22Rv1 cells; read-out: Absolute IC50): 6 nM
inhibition at 10 µM (22Rv1 cells; [1]): 89%
GI50 (MES-SA/DX5 cells; read-out: Absolute GI50): 7 nM
IC50 (MES-SA/DX5 cells; read-out: Absolute IC50): 7 nM
inhibition at 10 µM (MES-SA/DX5 cells; [1]): 97.8%
GI50 (143B cells; read-out: Absolute GI50): 8 nM
IC50 (143B cells; read-out: Absolute IC50): 8 nM
inhibition at 10 µM (143B cells; [1]): 97.8%
GI50 (A-673 cells; read-out: Absolute GI50): 3 nM
IC50 (A-673 cells; read-out: Absolute IC50): 4 nM
inhibition at 10 µM (A-673 cells; [1]): 86.1%
GI50 (MDA-MB-453 cells; read-out: Absolute GI50): 4 nM
IC50 (MDA-MB-453 cells; read-out: Absolute IC50): 4 nM
inhibition at 10 µM (MDA-MB-453 cells; [1]): 67.5%
GI50 (MDA-MB-231 cells; read-out: Absolute GI50): 20 nM
IC50 (MDA-MB-231 cells; read-out: Absolute IC50): > 10000 nM
inhibition at 10 µM (MDA-MB-231 cells; [1]): 45.8%
GI50 (SNU-5 cells; read-out: Absolute GI50): 11 nM
IC50 (SNU-5 cells; read-out: Absolute IC50): 12 nM
inhibition at 10 µM (SNU-5 cells; [1]): 96.2%
GI50 (NCI-H226 cells; read-out: Absolute GI50): 10 nM
IC50 (NCI-H226 cells; read-out: Absolute IC50): 13 nM
inhibition at 10 µM (NCI-H226 cells; [1]): 61.7%
GI50 (HT-1376 cells; read-out: Absolute GI50): 6 nM
IC50 (HT-1376 cells; read-out: Absolute IC50): 9 nM
inhibition at 10 µM (HT-1376 cells; [1]): 53%
GI50 (KYSE-150 cells; read-out: Absolute GI50): 5 nM
IC50 (KYSE-150 cells; read-out: Absolute IC50): 6 nM
inhibition at 10 µM (KYSE-150 cells; [1]): 80%
GI50 (FaDu cells; read-out: Absolute GI50): 7 nM
IC50 (FaDu cells; read-out: Absolute IC50): 8 nM
inhibition at 10 µM (FaDu cells; [1]): 85.9%
GI50 (HCT-15 cells; read-out: Absolute GI50): 5 nM
IC50 (HCT-15 cells; read-out: Absolute IC50): 6 nM
inhibition at 10 µM (HCT-15 cells; [1]): 96.8%
GI50 (U251 cells; read-out: Absolute GI50): 9 nM
IC50 (U251 cells; read-out: Absolute IC50): 9 nM
inhibition at 10 µM (U251 cells; [1]): 75%
GI50 (HeLa cells; read-out: Absolute GI50): 4 nM
IC50 (HeLa cells; read-out: Absolute IC50): 4 nM
inhibition at 10 µM (HeLa cells; [1]): 89.5%
GI50 (HT-1080 cells; read-out: Absolute GI50): 5 nM
IC50 (HT-1080 cells; read-out: Absolute IC50): 5 nM
inhibition at 10 µM (HT-1080 cells; [1]): 97.2%

From patent US20210196724A1, “BIARYL COMPOSITIONS AND METHODS FOR MODULATING A KINASE CASCADE” (Athenex, Inc., priority 2016, published 2021)
